Test results reported in patent US20250332173A1, “COMPOUNDS AND METHODS FOR MODULATING NUCLEIC ACID SPLICING” (REMIX THERAPEUTICS INC., priority 2021, published 2025).

Columns and labels:
[1] = system: MYB; test: HiBiT protein abundance assay, MYB HiBiT K562 cell line; assay type: cell-based, human; conditions: HiBiT K562 cell line, 24 hours, top dose 10 μM; read-out: Effect on protein abundance, MYB (IC50 category)
In short: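 Tagged-protein abundance measured by split-NanoBiT luminescence after lysis, following 24 h compound exposure (37° C; 10 μM top, 3-fold, 10 points; DMSO ≤0.25%) of HiBiT knock-in K562 cells. Percent response vs DMSO and unmodified-cell controls; 4-parameter logistic interpolation at 50% gave IC50.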

[2] = system: K562 (human chronic myelogenous leukemia) cells; test: Cell Titer Glo 2.0 cell viability assay; assay type: cell-based; conditions: Homo sapiens, K562, 72 h, K562 cells, 72 hours, Cell Titer Glo 2.0; read-out: K562 GI50
Protocol: Compounds described herein were screened for toxicity in K562 (human chronic myelogenous leukemia) cells using a Cell Titer Glo 2.0 assay.
Cells were plated at 500 cells/well (K562 cells) in 45 μL of IMDM supplemented with 1000 FBS in a 384-well opaque plate. Wells containing only medium were used as a blank control. Test compounds (e.g., compounds ofFormula (I), (II), (III), (IV), (V), (VI), (VII), (VIII), and (IX)) were first serially diluted in DMSO then diluted 1:100 with IMDM+10% FBS. The final concentration of DMSO was 0.1% in each well. The cells were incubated for 72 hours at 37° C. and 500 CO2 before assaying with Cell Titer Glo 2.0 reagent.

[3] = system: Target C; test: RT-qPCR splicing assay panel, Target C canonical junction (CJ) mRNA; assay type: cell-based, human; conditions: Homo sapiens; Table 5 panel; canonical junction qPCR; compound concentration having 50% response in CJ decrease; read-out: Target C IC50 (decrease in CJ mRNA levels)
In short: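 A673 cells (DMEM/10% FBS) or K562 cells (IMDM/10% FBS) were treated 24 h at 37° C. with 11-point 3-fold dilutions (top 10 uM, ≤0.25% DMSO). Canonical-junction mRNA was quantified in lysates by RT-qPCR, normalized to GAPDH, GUSB or PPIA.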

[4] = system: Target C; test: HiBiT protein abundance assay, Target C (Promega Nano-Glo HiBiT Lytic Detection System, knock-in K562 cell line); assay type: cell-based, human; conditions: Homo sapiens, K562, 24 h, HiBiT K562 cell line, 24 hours, top dose 10 μM; read-out: Effect on protein abundance, Target C (IC50 category)
In short: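 Protein abundance was read by Nano-Glo HiBiT lytic luminescence after 24 h compound exposure (10-point, threefold series from 10 μM final) of HiBiT knock-in K562 cells. Parental K562 served as baseline; the 50%-abundance concentration was interpolated from a four-parameter logistic fit.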

IC50 [1] | GI50 [2] | IC50 [3] | IC50 [4] | Structure (SMILES)
0.1 to 1 µM | 0.1 to 1 µM | 1 to 10 µM | 1 to 10 µM | Cc1cn2cc(-c3cc(F)c4c(=O)n([C@H]5CCNC[C@@H]5F)cnc4c3)cc(F)c2n1 (relative stereo) [Compound 341, 5-fluoro-7-(8-fluoro-2-methylimidazo[1,2-a]pyridin-6-yl)-3-(trans-3-fluoropiperidin-4-yl)quinazolin-4(3H)-one]
< 0.1 µM | < 0.1 µM | < 0.1 µM | < 0.1 µM | Cc1cn2nc(-c3cc(F)c4c(=O)n([C@H]5CCNC6(CC6)C5)cnc4c3)cc(C)c2n1 (single isomer, unassigned) [Compound 357]
> 10 µM | 1 to 10 µM | > 10 µM | > 10 µM | CN1CCN(c2ccc3c(=O)n(-c4ccc5nn(C)cc5c4)cnc3c2)CC1 [Compound 152]
> 10 µM | – | – | > 10 µM | Cn1cc2cc(-n3cnc4cc(N5CCNCC5)ccc4c3=O)ccc2n1 [Compound 153]
1 to 10 µM | > 10 µM | > 10 µM | 1 to 10 µM | Cc1cn2nc(-c3ccc4c(c3)CCN(C3CCNC3)C4=O)cc(C)c2n1 (stereo not shown) [Compound 269]
0.1 to 1 µM | 1 to 10 µM | 1 to 10 µM | 1 to 10 µM | Cc1cn2nc(-c3ccc4c(c3)CCN([C@@H]3CCN[C@H](C)C3)C4=O)cc(C)c2n1 [Compound 281]
0.1 to 1 µM | 0.1 to 1 µM | 0.1 to 1 µM | 0.1 to 1 µM | Cc1cn2nc(-c3ccc4c(=O)n(C5CCCNCC5)ncc4c3)cc(C)c2n1 (stereo not shown) [Compound 283]
1 to 10 µM | > 10 µM | > 10 µM | > 10 µM | O=c1c2ccc(-c3cn[nH]c3)cc2ncn1C1CCNCC1 [Compound 284]
0.1 to 1 µM | 0.1 to 1 µM | > 10 µM | 1 to 10 µM | Cc1nc2c(F)cc(-c3ccc4c(=O)n(C5CCNCC5)cnc4c3)cc2s1 [Compound 285]
0.1 to 1 µM | 0.1 to 1 µM | 0.1 to 1 µM | 0.1 to 1 µM | Cc1cn2nc(-c3ccc4c(=O)n(C5CCNCC5)cnc4c3)nc2c(C)n1 [Compound 287, 7-{6,8-dimethyl-[1,2,4]triazolo[1,5-a]pyrazin-2-yl}-3-(piperidin-4-yl)quinazolin-4-one]
1 to 10 µM | 0.1 to 1 µM | > 10 µM | 1 to 10 µM | Cc1cn2cc(-c3ccc4c(=O)n([C@@H]5CCN[C@H](C)C5)cnc4c3)cc(F)c2n1 [Compound 295]
0.1 to 1 µM | 1 to 10 µM | 1 to 10 µM | 1 to 10 µM | Cc1cn2cc(-c3ccc4c(=O)n(C5CCNCC5)cnc4c3)ncc2n1 [Compound 297]
0.1 to 1 µM | 1 to 10 µM | 1 to 10 µM | 1 to 10 µM | Cc1cn2nc(-c3ccc4c(=O)n(C5CCNCC5)cnc4c3)cc2c(C)n1 [Compound 298]

More lines, now with the values behind:

Structure (SMILES) | IC50 [1] | GI50 [2] | IC50 [3] | IC50 [4]
Cc1cn2cc(-c3cc(F)c4c(=O)n([C@H]5CCN[C@@H](C)C5)cnc4c3)cc(F)c2n1 (relative stereo) [Compound 343, cis-5-fluoro-7-(8-fluoro-2-methylimidazo[1,2-a]pyridin-6-yl)-3-(2-methylpiperidin-4-yl)quinazolin-4(3H)-one] | < 0.1 µM | 0.1 to 1 µM | 0.1 to 1 µM | 0.1 to 1 µM
Cc1cc(-c2ccc3c(=O)n(C4CCN(C)CC4)cnc3c2)cc2cn(C)nc12 [Compound 156] | 1 to 10 µM | – | – | > 10 µM
Cc1cc(-c2ccc3c(=O)n(C4CC(C)(C)NC(C)(C)C4)cnc3c2)cc2cn(C)nc12 [Compound 157] | 1 to 10 µM | – | – | 1 to 10 µM
Cn1cc2cc(-n3cnc4cc(C5=CCNCC5)ccc4c3=O)ccc2n1 [Compound 158] | 1 to 10 µM | – | – | 1 to 10 µM
CN1CC=C(c2ccc3c(=O)n(-c4ccc5nn(C)cc5c4)cnc3c2)CC1 [Compound 159] | > 10 µM | – | – | > 10 µM
CCN1CCC(n2ncc3cc(-c4cc(C)c5nc(C)cn5n4)ccc3c2=O)CC1 [Compound 266] | 0.1 to 1 µM | 0.1 to 1 µM | 0.1 to 1 µM | 0.1 to 1 µM
Cc1cn2nc(-c3ccc4c(c3)CCN(C3CCNC(C)(C)C3)C4=O)cc(C)c2n1 (stereo not shown) [Compound 267] | 0.1 to 1 µM | 1 to 10 µM | 1 to 10 µM | 1 to 10 µM
Cc1cn2nc(-c3ccc4c(c3)CCN(C3CCN(C)CC3)C4=O)cc(C)c2n1 [Compound 268] | 0.1 to 1 µM | 1 to 10 µM | > 10 µM | > 10 µM
CCN1CCC(N2CCc3cc(-c4cc(C)c5nc(C)cn5n4)ccc3C2=O)CC1 [Compound 270] | 0.1 to 1 µM | 1 to 10 µM | > 10 µM | > 10 µM
Cc1cn2nc(-c3ccc4c(=O)n(C5CCN(C)C5)ncc4c3)cc(C)c2n1 (stereo not shown) [Compound 271] | 1 to 10 µM | 1 to 10 µM | 1 to 10 µM | 1 to 10 µM
Cc1cn2nc(-c3ccc4c(=O)n([C@@H]5CCN[C@H](C)C5)ncc4c3)cc(C)c2n1 [Compound 272] | 0.1 to 1 µM | 0.1 to 1 µM | 0.1 to 1 µM | 0.1 to 1 µM
Cc1cn2nc(-c3ccc4c(=O)n(C5CCNC6(CC6)C5)ncc4c3)cc(C)c2n1 (stereo not shown) [Compound 274] | < 0.1 µM | 0.1 to 1 µM | < 0.1 µM | < 0.1 µM
Cc1cn2cc(-c3ccc4c(=O)n(C5CCNCC5)ccc4c3)cc(F)c2n1 [Compound 276] | < 0.1 µM | < 0.1 µM | < 0.1 µM | < 0.1 µM
Cc1cn2nc(-c3ccc4c(=O)n([C@@H]5CCN(C)[C@H](C)C5)ncc4c3)cc(C)c2n1 [Compound 277] | 0.1 to 1 µM | 1 to 10 µM | 1 to 10 µM | 0.1 to 1 µM
Cc1cn2nc(-c3ccc4c(=O)n([C@H]5CCN(C)[C@H](C)C5)ncc4c3)cc(C)c2n1 [Compound 278] | < 0.1 µM | 0.1 to 1 µM | 0.1 to 1 µM | < 0.1 µM
Cc1cn2nc(-c3ccc4c(=O)n(C5CCNC(C)(C)C5)ncc4c3)cc(C)c2n1 (stereo not shown) [Compound 279] | 0.1 to 1 µM | 1 to 10 µM | 0.1 to 1 µM | < 0.1 µM
Cc1cn2nc(-c3ccc4c(=O)n([C@@H]5C[C@H]6CC[C@@H](C5)N6)ncc4c3)cc(C)c2n1 [Compound 280] | 0.1 to 1 µM | 1 to 10 µM | 1 to 10 µM | 0.1 to 1 µM
Cc1cn2nc(-c3ccc4c(c3)CCN(C3CCN(C)C3)C4=O)cc(C)c2n1 (stereo not shown) [Compound 282] | 1 to 10 µM | > 10 µM | > 10 µM | > 10 µM
Cc1cn2cc(-c3ccc4c(=O)n(C5CCNCC5)cnc4c3)nc2c(C)n1 [Compound 286] | 0.1 to 1 µM | 0.1 to 1 µM | 1 to 10 µM | 1 to 10 µM
Cc1cn2nc(-c3ccc4c(=O)n(C5CCN(C)CC5)cnc4c3)nc2c(C)n1 [Compound 288, 7-{6,8-dimethyl-[1,2,4]triazolo[1,5-a]pyrazin-2-yl}1-3-(1-methylpiperidin-4-yl)quinazolin-4-one] | 1 to 10 µM | 1 to 10 µM | 1 to 10 µM | 1 to 10 µM
Cc1cn2nc(-c3ccc4c(=O)n(C5CCN(C)CC5)cnc4c3F)cc(C)c2n1 [Compound 290] | 0.1 to 1 µM | – | 0.1 to 1 µM | 0.1 to 1 µM
Cc1cn2cc(-c3ccc4c(=O)n(C5CCNCC5)cnc4c3)cc(Cl)c2n1 [Compound 291] | 0.1 to 1 µM | < 0.1 µM | 0.1 to 1 µM | 0.1 to 1 µM
Cc1cn2cc(-c3ccc4c(=O)n(C5CCNCC5)cnc4c3)cc(C)c2n1 [Compound 292] | 0.1 to 1 µM | 0.1 to 1 µM | 1 to 10 µM | 1 to 10 µM
Cc1cn2cc(-c3ccc4c(=O)n([C@@H]5CCN[C@@H](C)C5)cnc4c3)cc(F)c2n1 [Compound 293] | 0.1 to 1 µM | 0.1 to 1 µM | 1 to 10 µM | 1 to 10 µM
Cc1cn2cc(-c3ccc4c(=O)n(C5CCN[C@@H](C)C5)cnc4c3)cc(F)c2n1 (stereo partly shown) [Compound 294] | 0.1 to 1 µM | 0.1 to 1 µM | 1 to 10 µM | 1 to 10 µM
Cc1cn2cc(-c3ccc4c(=O)n([C@H]5CCN[C@H](C)C5)cnc4c3)cc(F)c2n1 [Compound 296] | 0.1 to 1 µM | 0.1 to 1 µM | 0.1 to 1 µM | 0.1 to 1 µM
CN1CCC(n2cnc3cc(-c4cn[nH]c4)ccc3c2=O)CC1 [Compound 299] | > 10 µM | > 10 µM | > 10 µM | > 10 µM
Cc1nc2c(F)cc(-c3ccc4c(=O)n(C5CCN(C)CC5)cnc4c3)cc2o1 [Compound 300] | 0.1 to 1 µM | 1 to 10 µM | 1 to 10 µM | 1 to 10 µM
Cc1nc2c(F)cc(-c3ccc4c(=O)n(C5CCN(C)CC5)cnc4c3)cc2s1 [Compound 301] | 1 to 10 µM | 1 to 10 µM | 1 to 10 µM | 1 to 10 µM
